Values quoted from earlier work as cited in patent US9326991B2, “Nucleotide prodrug compounds and use” (LIGAND PHARMACEUTICALS INC., priority 2012, dated 2016).

Settings: human subjects

In the case of `NC(=O)c1ncn([C@@H]2O[C@H](CO)[C@@H](O)[C@H]2O)n1` [Ribavirin, 1-((2R,3R,4S,5R)-3,4-dihydroxy-5-(hydroxymethyl)oxolan-2-yl)-1H-1,2,4-triazole-3-carboxamide], the half-life is given as ~12 days.
